Measured values from patent US12150971B2, “Method and composition for preventing and treating Covid-19 and long Covid” (priority 2021, dated 2024).

Test system: xCT
Test: Western blot of xCT in THP-1-derived macrophages
Type: cell-based, human
Details: 5 mM NAC 1 h pretreatment, then 100 μg/ml Virofree 6 or 24 h
Description: The cells were exposed to different treatments for the indicated time, the cells were lysed on ice with lysis buffer. The cell lysate was cleared by centrifugation at 12,000 g for 10 min. The lysate was resolved by sodium dodecyl sulfate-polyacrylamide gel electrophoresis, and the proteins were transferred to a polyvinylidene fluoride membrane. After blocking with 5% non-fat dry milk in Tris-buffered saline, the membrane was incubated overnight with the desired primary antibody (FPN (Novus Biologicals, NBP1-21502, 1:1000), FTH-1 (Cell signaling, 4393S, 1:1000), GPX4 (Abcam, ab125066, 1:1000), TFRC (Cell signaling, 13208s, 1:1000), xCT (Cell signaling, 17681s, 1:1000), GAPDH (GeneTex, GTX100118, 1:10,000), α-SMA (Abcam, ab5694, 1:1000), Fibronectin (Santa Cruz, sc-9068, 1:1000), N-cadherin (BD, 610920, 1:1000), β-actin (GeneTex, GTX109639, 1:10000)). Subsequently, the membrane was incubated with an appropriate secondary antibody. Immunoreactive bands were visualized using the enhanced chemiluminescence (ECL) method and captured by a Luminescence Imaging system (LAS 4000™, Fuji Photo Film Co. Ltd).

CC(=O)N[C@@H](CS)C(=O)O [N-acetyl cysteine]
xCT expression mediated by Virofree after NAC pretreatment: significantly decrease
